Experiments:
BV-2 cells = assay: MTT assay of BV-2 cell viability; format: cell-based, mouse; conditions: 24 h
Method: BV-2 cells were cultured in DMEM/F-12 media supplemented with 10% (v/v) FBS and 1% (v/v) penicillin/streptomycin, and kept at 37 °C in a humidified incubator ([…], 5% CO2) for all studies. Cells with 80% confluency were used for experiments. At 24 h post-seeding, BV-2 cells were treated with either of the MFP compounds (at concentrations detailed below) or vehicle (0.1% (v/v) DMSO) and 1 µg/mL LPS for a period of 24 h. In some experiments (detailed in Results), BV-2 cells were exposed to MFP compounds for 2 h before a 24 h exposure to LPS and MFP compounds, and in some studies, in the presence of FABP4 siRNA using a 24 h treatment that we have previously employed (Low et al. [2021]). In brief, BV-2 cells were washed once 4 h post-seeding with blank DMEM/F-12 media. siRNA complexes (containing FABP4 siRNA, target sequence 5’-[…]-3’ or AllStar Negative Control siRNA, target sequence proprietary) were added dropwise onto the cells. siRNA complexes were prepared by mixing siRNA and HiPerfect transfection reagent together in FBS-free DMEM/F12 media and incubating for 15 min to allow the siRNA complexes to form. The cells were incubated with the siRNA complex for 5 min, after which, DMEM/F12 media containing FBS was added into each well to dilute the siRNA complexes to 5 nM.
To determine the most appropriate and tolerable concentration of MFP compounds in BV-2 cells, an MTT assay was performed. Following treatment with increasing concentrations of MFP compounds for 24 h, BV-2 cells were rinsed once with PBS prior to being incubated with 0.45 mg/mL MTT reagent for 4 h in a 37 °C, 5% CO2 incubator. After that, the MTT reagent was removed and 150 µL of DMSO was added into all wells for 30 min. The plate was then immediately read on a Perkin-Elmer Enspire fluorescence plate reader (Boston, MA) at 540 nm. Background subtraction was performed before the percentage cell viability was calculated and expressed as a ratio of mean absorbance of MFP-treated cells over mean absorbance of vehicle-treated cells.

LPS-activated BV-2 cells [1] = assay: RT-qPCR for TNF-α mRNA expression in LPS-activated BV-2 cells; format: cell-based, mouse; conditions: 10 µM, 1 µg/mL LPS 24 h
Method: (§1) BV-2 cells were cultured in DMEM/F-12 media supplemented with 10% (v/v) FBS and 1% (v/v) penicillin/streptomycin, and kept at 37 °C in a humidified incubator ([…], 5% CO2) for all studies. Cells with 80% confluency were used for experiments. At 24 h post-seeding, BV-2 cells were treated with either of the MFP compounds (at concentrations detailed below) or vehicle (0.1% (v/v) DMSO) and 1 µg/mL LPS for a period of 24 h. In some experiments (detailed in Results), BV-2 cells were exposed to MFP compounds for 2 h before a 24 h exposure to LPS and MFP compounds, and in some studies, in the presence of FABP4 siRNA using a 24 h treatment that we have previously employed (Low et al. [2021]). […]
RT-qPCR was performed to determine the amount of TNF-α mRNA following the required cell treatments, as previously described (Low et al. [2020]). […] The concentration and purity of the isolated RNA was assessed using a Thermo Fisher Nanodrop 1000 spectrophotometer (Rockford, IL). […] The threshold cycles (Ct) were automatically calculated using the CFX manager software. […]

[2] = 1D 1H NMR aqueous solubility in phosphate buffer; format: physicochemical; conditions: kinetic from dmso stock, phosphate buffer pH 7.4 in D2O, 0.1% d6-DMSO, 25 °C, range 3.125–100 µM, read-out: Soluble in phosphate buffer up to (concentration)
Method: 1D ^1H NMR was employed to determine the solubility limits of the four MFP compounds and BMS309403 in phosphate buffer. This method has been commonly used to determine compound solubility in the drug discovery setting (Devine et al. [2014]; Lee et al. [2015b]; Lin et al. [2009]). A 100 mM of stock solution of each compound was first prepared in d6-DMSO. These stock solutions were then added into phosphate buffer (50 mM sodium phosphate, 25 mM NaCl, 100 µM of DSS, pH 7.4 in D2O) to achieve a final d6-DMSO concentration of 0.1% (v/v) which is equivalent to the DMSO concentration present in BV-2 cell culture experiments. All samples were inspected to note whether visible precipitates were formed. ^1H NMR spectra for all of the samples were acquired using Bruker Avance III 600 MHz spectrometer at 25 °C. Experimental data were acquired using a relaxation delay of 5 s with 128 scans, and water suppression using an excitation sculpting pulse scheme. Mestrelab Research 13.0 software was used to integrate the proton resonances of the compounds. A well-resolved peak (i.e. no overlaps with any other peaks) in the spectrum of each compound was chosen for integration, relative to the DSS peak (at 0 ppm). […] In addition, the chemical shifts of the resonances in the 1D ^1H NMR spectra were monitored.

LPS-activated BV-2 cells [3] = assay: Extracellular nitrite (Griess assay) from LPS-activated BV-2 cells; format: cell-based, mouse; conditions: 50 µM, 1 µg/mL LPS 24 h
Method: as §1
For measurement of extracellular nitrite concentrations, the Griess assay was performed as per the manufacturer’s protocol (Molecular Probes, Eugene, OR) with minor changes. […] The absorbance of the media samples was measured on a Perkin-Elmer Enspire plate reader at 548 nm, with nitrite concentrations in media samples obtained by back calculating sample absorbance values back to a standard curve prepared through serial dilution of NaNO2 prepared in media.

- solubility [2]: ≥ 100 µM
Structure (SMILES): O=C(O)c1cccc(NS(=O)(=O)c2ccc(Cl)c(Cl)c2)c1 [MFP-0012328]
- fold reduction in cell viability (BV-2 cells; 75 µM and 100 µM of MFP-0012328, 100 µM of the other MFP compounds, range over the compounds): 0.17–0.27 fold
- BV-2 cell viability relative to vehicle control (BV-2 cells; 2–50 µM, MTT): no significant differences
- reduction of TNF-α mRNA levels relative to LPS alone (LPS-activated BV-2 cells [1]): 17%
- attenuation of LPS-mediated release of nitrite (LPS-activated BV-2 cells [3]): 51.3%

Source: publication PMC12000251, “Evaluation of the Anti-Inflammatory Effects of Novel Fatty Acid-Binding Protein 4 Inhibitors in Microglia” (Journal of Neuroimmune Pharmacology, 2025)
